The results in this text go back to patent US8815882B2, “Pyrazole aminopyrimidine derivatives as LRRK2 modulators” (Genentech, Inc., priority 2010, dated 2014).

One may read the Ki as a dissociation constant, usually derived from enzyme kinetics or from competition with a known ligand.

For the first experiment, the target named is T1, LRRK2 (Homo sapiens, UniProt Q5S007, G2019S).
T1 construct: purchased Invitrogen PV4882 (lot 567054A)
T1 sequence (Q5S007 whole entry G2019S): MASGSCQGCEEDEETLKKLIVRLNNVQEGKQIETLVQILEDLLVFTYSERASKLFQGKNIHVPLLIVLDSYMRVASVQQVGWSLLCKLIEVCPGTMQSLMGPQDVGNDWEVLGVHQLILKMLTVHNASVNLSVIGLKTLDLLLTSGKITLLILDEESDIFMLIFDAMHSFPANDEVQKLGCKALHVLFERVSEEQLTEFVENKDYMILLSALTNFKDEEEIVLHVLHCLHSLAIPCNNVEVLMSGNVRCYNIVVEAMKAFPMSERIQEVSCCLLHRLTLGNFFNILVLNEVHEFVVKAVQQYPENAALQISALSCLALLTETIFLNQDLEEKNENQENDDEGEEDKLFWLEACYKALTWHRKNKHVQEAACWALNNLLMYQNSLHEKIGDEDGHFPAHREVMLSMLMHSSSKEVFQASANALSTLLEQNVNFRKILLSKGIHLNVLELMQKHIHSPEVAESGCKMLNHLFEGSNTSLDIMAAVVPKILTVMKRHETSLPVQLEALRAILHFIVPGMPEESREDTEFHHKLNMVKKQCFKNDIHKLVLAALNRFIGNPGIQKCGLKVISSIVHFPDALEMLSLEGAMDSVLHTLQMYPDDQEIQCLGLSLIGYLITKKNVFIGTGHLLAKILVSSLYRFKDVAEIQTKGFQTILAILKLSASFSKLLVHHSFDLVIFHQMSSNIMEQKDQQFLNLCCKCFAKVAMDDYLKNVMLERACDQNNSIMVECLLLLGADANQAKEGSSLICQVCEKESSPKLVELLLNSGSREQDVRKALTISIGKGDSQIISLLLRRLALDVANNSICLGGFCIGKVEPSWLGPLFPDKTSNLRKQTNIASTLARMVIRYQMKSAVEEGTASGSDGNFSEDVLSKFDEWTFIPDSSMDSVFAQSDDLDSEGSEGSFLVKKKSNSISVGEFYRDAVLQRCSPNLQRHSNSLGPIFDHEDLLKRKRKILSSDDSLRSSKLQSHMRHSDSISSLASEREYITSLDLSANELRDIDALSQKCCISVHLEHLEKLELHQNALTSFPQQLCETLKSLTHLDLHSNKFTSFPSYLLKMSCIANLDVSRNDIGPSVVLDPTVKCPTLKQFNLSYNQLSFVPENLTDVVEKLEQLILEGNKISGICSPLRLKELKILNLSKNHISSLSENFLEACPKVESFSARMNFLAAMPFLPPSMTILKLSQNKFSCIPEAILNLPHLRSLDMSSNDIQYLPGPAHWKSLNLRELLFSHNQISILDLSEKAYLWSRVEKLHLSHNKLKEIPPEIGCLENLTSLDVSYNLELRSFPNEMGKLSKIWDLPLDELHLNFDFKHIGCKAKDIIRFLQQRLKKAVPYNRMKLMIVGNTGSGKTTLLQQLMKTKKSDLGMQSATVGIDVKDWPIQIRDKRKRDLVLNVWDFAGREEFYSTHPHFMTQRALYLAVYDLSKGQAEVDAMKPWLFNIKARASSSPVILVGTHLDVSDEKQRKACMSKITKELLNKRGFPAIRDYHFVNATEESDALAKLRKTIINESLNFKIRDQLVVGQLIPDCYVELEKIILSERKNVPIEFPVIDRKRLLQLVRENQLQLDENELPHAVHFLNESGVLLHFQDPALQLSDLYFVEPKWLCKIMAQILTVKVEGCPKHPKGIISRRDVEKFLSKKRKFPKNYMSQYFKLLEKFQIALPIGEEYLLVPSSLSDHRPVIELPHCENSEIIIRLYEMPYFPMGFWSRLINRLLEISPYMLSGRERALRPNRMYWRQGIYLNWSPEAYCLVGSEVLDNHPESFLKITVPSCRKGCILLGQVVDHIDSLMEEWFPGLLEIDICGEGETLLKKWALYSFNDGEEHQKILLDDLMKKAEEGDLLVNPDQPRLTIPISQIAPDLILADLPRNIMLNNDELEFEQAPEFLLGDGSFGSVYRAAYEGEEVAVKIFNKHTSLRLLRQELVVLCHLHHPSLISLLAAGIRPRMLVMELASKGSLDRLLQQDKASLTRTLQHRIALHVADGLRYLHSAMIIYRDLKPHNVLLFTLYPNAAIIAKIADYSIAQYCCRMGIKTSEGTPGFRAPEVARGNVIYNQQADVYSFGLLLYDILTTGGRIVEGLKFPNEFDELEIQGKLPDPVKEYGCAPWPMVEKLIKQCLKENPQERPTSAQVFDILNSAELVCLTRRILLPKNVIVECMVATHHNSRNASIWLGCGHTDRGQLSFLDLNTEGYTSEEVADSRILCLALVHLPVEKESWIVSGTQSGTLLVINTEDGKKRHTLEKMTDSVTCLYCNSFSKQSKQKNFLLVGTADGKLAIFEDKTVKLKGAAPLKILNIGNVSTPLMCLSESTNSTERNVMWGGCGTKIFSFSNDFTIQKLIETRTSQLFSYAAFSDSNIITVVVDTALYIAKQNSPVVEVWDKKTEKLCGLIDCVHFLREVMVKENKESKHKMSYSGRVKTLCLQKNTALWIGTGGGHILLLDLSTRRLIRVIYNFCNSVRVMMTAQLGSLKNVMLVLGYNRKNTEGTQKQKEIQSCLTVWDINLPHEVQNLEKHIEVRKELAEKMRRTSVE
As to the kind of experiment: In Vitro LRRK2 Assay (LabChip 3000, fluorescently-labeled peptide substrate, ATP). Format: biochemical. Conditions: Table 9; LRRK2 Ki (micromolar); read-out: LRRK2 Ki (KI). The essentials:
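LRRK2, fluorescent peptide substrate (diluted to 4 μM before mixing), ATP and compound were incubated 2 h in the dark, then stopped. Phosphorylated and unphosphorylated peptide were separated by capillary electrophoresis and quantified by fluorescence. Ki was fitted with a tight-binding equation including enzyme concentration, S and Km; IC50 or percent inhibition were also reported.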
With `CNc1nc(Nc2cn(-c3ccccn3)nc2C)ncc1C#N` [Example 370, 2-(3-methyl-1-(pyridin-2-yl)-1H-pyrazol-4-ylamino)-4-(methylamino) pyrimidine-5-carbonitrile], the Ki was found to be 41.5 nM.

Consider `CNc1nc(Nc2cnn(-c3ccc(F)cc3)c2C)ncc1C#N` [Example 386, 2-[1-(4-Fluoro-phenyl)-5-methyl-1H-pyrazol-4-ylamino]-4-methylamino-pyrimidine-5-carbonitrile], for which the inhibition constant (Ki) came out at 95.9 nM.

The same experiment, now with this note: Table 10; LRRK2 Ki (micromolar); read-out: LRRK2 Ki (KI).
Turning to `CNc1nc(Nc2cnn(C3(C#N)CCC3)c2C)ncc1C(F)(F)F` [Example 446, 1-[5-Methyl-4-(4-methylamino-5-trifluoromethyl-pyrimidin-2-ylamino)-pyrazol-1-yl]-cyclobutane-carbonitrile], the Ki came out at 2.4 nM.

`CNc1nc(Nc2cnn(C(C)(C)C(=O)N(C)C)c2C)ncc1C(F)(F)F` [Example 399, N,N,2-trimethyl-2-(5-methyl-4-(4-(methylamino)-5-(trifluoromethyl)pyrimidin-2-ylamino)-1H-pyrazol-1-yl)propanamide]: the Ki was 314 nM.

Regarding `CNc1nc(Nc2cnn(C(C)(C)C(=O)NCC(F)(F)F)c2C)ncc1C(F)(F)F` [Example 443, 2-[5-Methyl-4-(4-methylamino-5-trifluoromethyl-pyrimidin-2-ylamino)-pyrazol-1-yl]-N-(2,2,2-trifluoro-ethyl)-isobutyramide], the Ki turned out to be 66.6 nM.

Staying with this experiment, now noted: read-out: LRRK2 Ki (KI), Table 7.
Take `COc1nc(Nc2cn(S(C)(=O)=O)nc2C)ncc1Cl` [Example 54, 5-chloro-4-methoxy-N-(3-methyl-1-(methylsulfonyl)-1H-pyrazol-4-yl)pyrimidin-2-amine]: the Ki worked out at 7.8 nM.

In the case of `COc1nc(Nc2cn(C(C)(C)C#N)nc2C)ncc1Cl` [Example 73, 2-(4-(5-chloro-4-methoxy-pyrimidin-2-ylamino)-3-methyl-1H-pyrazol-1-yl)-2-methylpropane-nitrile], the Ki was 14 nM.

Staying with this experiment, now noted: read-out: LRRK2 Ki (KI), Table 8.
With `CCNc1nc(Nc2cn([C@H]3CCCN(C)C3)nc2C)ncc1C(F)(F)F` [Example 312, N4-Ethyl-N2-[3-methyl-1-((S)-1-methyl-piperidin-3-yl)-1H-pyrazol-4-yl]-5-trifluoromethyl-pyrimidine-2,4-diamine], the inhibitory constant (Ki) was 15.6 nM.

Regarding `CCN1CCC(n2ncc(Nc3ncc(C(F)(F)F)c(NC)n3)c2Cl)C(F)C1` (centres unmarked) [Example 242, N2-(5-chloro-1-(1-ethyl-3-fluoropiperidin-4-yl)-1H-pyrazol-4-yl)-N4-methyl-5-(trifluoromethyl) pyrimidine-2,4-diamine], the Ki was determined as 2.1 nM.

As for `CNc1nc(Nc2cnn(C3CC3)c2Cl)ncc1C(F)(F)F` [Example 145, N2-(5-chloro-1-cyclopropyl-1H-pyrazol-4-yl)-N4-methyl-5-(trifluoromethyl) pyrimidine-2,4-diamine], the Ki amounted to 1.7 nM.

With `CNc1nc(Nc2cn(C(C)(C)c3ccn(C)n3)nc2C)ncc1C(F)(F)F` [Example 345, N4-methyl-N2-(3-methyl-1-(2-(1-methyl-1H-pyrazol-3-yl)propan-2-yl)-1H-pyrazol-4-yl)-5-(trifluoromethyl) pyrimidine-2,4-diamine], the inhibition constant (Ki) was 115 nM.

On to `CNc1nc(Nc2cnn(-c3ccc(C#N)cc3)c2C)ncc1C(F)(F)F` [Example 147, 4-(5-methyl-4-(4-(methylamino)-5-(trifluoromethyl)pyrimidin-2-ylamino)-1H-pyrazol-1-yl)benzonitrile], for which the Ki was determined as 17 nM.

Take `CNc1nc(Nc2cn(Cc3ccccn3)nc2C)ncc1C(F)(F)F` [Example 213, N4-methyl-N2-(3-methyl-1-(pyridin-2-ylmethyl)-1H-pyrazol-4-yl)-5-(trifluoromethyl) pyrimidine-2,4-diamine]: the inhibition constant (Ki) amounted to 2.9 nM.

Take `CNc1nc(Nc2cnn(-c3cc(F)cc(F)c3)c2C)ncc1Br` [Example 115, 5-bromo-N2-(1-(3,5-difluorophenyl)-5-methyl-1H-pyrazol-4-yl)-N4-methylpyrimidine-2,4-diamine]: the inhibition constant Ki turned out to be 31 nM.

For the compound `CNc1nc(Nc2cnn(C3CCN(CCF)CC3)c2C)ncc1C(F)(F)F` [Example 284, N2-{1-[1-(2-Fluoro-ethyl)-piperidin-4-yl]-5-methyl-1H-pyrazol-4-yl}-N4-methyl-5-trifluoromethyl-pyrimidine-2,4-diamine], the inhibition constant (Ki) is 4.2 nM.

In the case of `CNc1nc(Nc2cn(C)nc2C2CC2)ncc1C(F)(F)F` [Example 177, N2-(3-cyclopropyl-1-methyl-1H-pyrazol-4-yl)-N4-methyl-5-(trifluoromethyl) pyrimidine-2,4-diamine], the Ki was 6.7 nM.

Turning to `CNc1nc(Nc2cn(-c3ccc(Cl)cc3)nc2C)ncc1Br` [Example 260, 5-Bromo-N2-[1-(4-chloro-phenyl)-3-methyl-1H-pyrazol-4-yl]-N4-methyl-pyrimidine-2,4-diamine], the Ki stood at 0.3 nM.

Consider `CCNc1nc(Nc2ccn(CC)n2)ncc1C(F)(F)F` [Example 186, N4-ethyl-N2-(1-ethyl-1H-pyrazol-3-yl)-5-(trifluoromethyl) pyrimidine-2,4-diamine], for which the inhibition constant (Ki) stood at 1.9 nM.

As for `CCNc1nc(Nc2cn(-c3ccc(C#N)cc3)nc2C)ncc1C(F)(F)F` [Example 265, 4-[4-(4-Ethylamino-5-trifluoromethyl-pyrimidin-2-ylamino)-3-methyl-pyrazol-1-yl]-benzonitrile], the inhibition constant (Ki) came out at 4.8 nM.

For the compound `CNc1nc(Nc2cnn(C)c2C#N)ncc1C(F)(F)F` [Example 215, 1-methyl-4-(4-(methylamino)-5-(trifluoromethyl)pyrimidin-2-ylamino)-1H-pyrazole-5-carbonitrile], the Ki is 3.2 nM.

Turning to `CNc1nc(Nc2cnn(C[C@@H](C)OC)c2C)ncc1C(F)(F)F` [Example 192, (R)-N2-(1-(2-methoxypropyl)-5-methyl-1H-pyrazol-4-yl)-N4-methyl-5-(trifluoromethyl) pyrimidine-2,4-diamine], the inhibition constant (Ki) worked out at 6.3 nM.

`CCNc1nc(Nc2cnn(C3CCN(C)CC3)c2C)ncc1C(F)(F)F` [Example 207, N4-ethyl-N2-(5-methyl-1-(1-methylpiperidin-4-yl)-1H-pyrazol-4-yl)-5-(trifluoromethyl) pyrimidine-2,4-diamine]: the Ki was determined as 2.6 nM.

For `CCNc1nc(Nc2cn(C3COC3)nc2C)ncc1C(F)(F)F` [Example 97, N4-ethyl-N2-(3-methyl-1-(oxetan-3-yl)-1H-pyrazol-4-yl)-5-(trifluoromethyl) pyrimidine-2,4-diamine], the inhibition constant Ki came to 1.6 nM.

As for `Cc1nn(S(C)(=O)=O)cc1Nc1ncc(C(F)(F)F)c(NC2CC2)n1` [Example 300, N4-Cyclopropyl-N2-(1-methanesulfonyl-3-methyl-1H-pyrazol-4-yl)-5-trifluoromethyl-pyrimidine-2,4-diamine], the inhibition constant Ki was determined as 0.4 nM.

Take `CNc1nc(Nc2cnn(-c3ccc(S(=O)(=O)C4CC4)cc3)c2C)ncc1C(F)(F)F` [Example 167, N2-(1-(4-(cyclopropyl-sulfonyl)phenyl)-5-methyl-1H-pyrazol-4-yl)-N4-methyl-5-(trifluoromethyl) pyrimidine-2,4-diamine]: the inhibition constant (Ki) is 18.8 nM.

Still in this experiment, the particulars now being: read-out: LRRK2 Ki given in the example.
On to `CNc1nc(Nc2cnn(C)c2C)ncc1C#N` [Example 349, 2-(1,5-Dimethyl-1H-pyrazol-4-ylamino)-4-(methylamino)pyrimidine-5-carbonitrile], for which the Ki amounted to 25 nM.
